System: infiltration of NK cells into ECM (collagen) toward cancer cells (A549)
Assay: NK cell infiltration in tumor microenvironment (TME) simulating organ-on-a-chip model
Assay type: cell-based
Conditions: co-treatment with NK cells and M5 versus NK cells alone; 48 hours; high-concentration collagen cell barrier model
Description: The efficacy as a cancer adjuvant was examined by administering tumor microenvironment (TME) simulating models (organ-on-a-chips) with NK cells and the indicator component M5 for the active ingredient of the present disclosure.
NK cells, known to have anti-cancer efficacy as immune cells, were examined for a change in infiltration ability into tumor tissues according to whether or not NK cells were co-administered with M5. The qualification criterion was the infiltration ability of immune cells into ECM, which was determined by the infiltration distance of NK cells and whether or not the number of infiltrating cells was increased. Collagen was selected as a representative type of ECM. The cells were seeded into the chips under a […] collagen condition, and after 6 hours and 48 hours, the infiltration of NK cells toward the medium and cancer cell (A549) channels was observed.
A comparison was made for the infiltration ability of NK cells between the treatment with NK cells alone and the co-treatment with NK cells and M5, for 48 hours in high-concentration collagen cell barrier models.

penta-mannuronic acid sodium salt [M5]
infiltration ability of NK cells into cancer cells: enhanced

Source: patent publication US20200376011A1, “COMPOSITION FOR TREATING CANCER INCLUDING ALGINATE OLIGOSACCHARIDE AS AN ACTIVE INGREDIENT” (BIO3S, INC, priority 2019, published 2020)
